From patent US8513228B2, “Crystalline form of antiprogestin CDB-4124” (Richter Gedeon Nyrt., priority 2009, dated 2013)

Key:
[1] = Water adsorption properties by dynamic vapour sorption (DVS); type: physicochemical
Method: From the examination of water adsorption properties important conclusions can be made about the physical and chemical stability of a compound. Amorphous compounds can adsorb more water from the air. This property is deliberately disadvantageous during the preparation process of a pharmaceutical composition, since the real amount of the active ingredient can't be measured because of the adsorbed water.
Water adsorption properties of the compounds were measured by dynamic vapour sorption technique (DVS). […]

[2] = Fast Stability Test (solid stored on a plate at 40° C. in air, impurity by HPLC); type: physicochemical; conditions: for N-demethyl-derivative of CDB-4124: largest degradation product; for N-demethyl-derivative of CDB-4124 / Impurity: HPLC; for Impurity: stored on a plate at 40° C. in the presence of air
Method: Amorphous and crystalline forms were stored on a plate at 40° C. in the presence of air for 10 days. Impurity was measured at different times using HPLC equipment. […]

Row | Structure (SMILES) | water adsorbed (max.) ([1]; DVS, 25° C., 0%-90% relative humidity, as humidity was increased) [m/m %] | mass change as the degree of humidity was increased ([1]; DVS, 25° C., 0%-90% relative humidity) | physical stability on change in relative humidity ([1]; room-temperature, independently of a change in relative humidity) | stability (purity examination) ([2]; 40° C., air, 10 days, compared with amorphous form) | N-demethyl-derivative of CDB-4124 ([2]; Day 0, 40° C., air) [%] | Impurity ([2]; Day 0) [%] | N-demethyl-derivative of CDB-4124 ([2]; Day 1, 40° C., air) [%] | Impurity ([2]; Day 1) [%] | N-demethyl-derivative of CDB-4124 ([2]; Day 2, 40° C., air) [%] | Impurity ([2]; Day 2) [%] | Impurity ([2]; Day 6) [%] | N-demethyl-derivative of CDB-4124 ([2]; Day 10, 40° C., air) [%] | Impurity ([2]; Day 10) [%]
1 | COCC(=O)[C@@]1(OC(C)=O)CC[C@H]2[C@@H]3CCC4=CC(=O)CCC4=C3[C@@H](c3ccc(N(C)C)cc3)C[C@@]21C [Amorphous form, 17α-acetoxy-21-methoxy-11β-[4-N,N-dimethylaminophenyl]-19-norpregna-4,9-diene-3,20-dione, reference compound] | 2 | – | – | – | – | – | – | – | – | – | – | – | –
2 | COCC(=O)[C@@]1(OC(C)=O)CC[C@H]2[C@@H]3CCC4=CC(=O)CCC4=C3[C@@H](c3ccc(N(C)C)cc3)C[C@@]21C [Form A, 17α-acetoxy-21-methoxy-11β-[4-N,N-dimethylaminophenyl]-19-norpregna-4,9-diene-3,20-dione] | – | barely changed | stable anhydrate | much better than that of the amorphous form | 0.18 | 0.33 | 0.18 | 0.33 | 0.18 | 0.35 | 0.43 | 0.23 | 0.48
